Test results reported in patent US11174252B2, “Heterocyclic compounds as kinase inhibitors” (priority 2018, dated 2021).
pIC50: −log10 of the molar value. Read-outs that look alike come from different tables or passages of the source.

Experiments:
[1] = biological target: PI3Kδ kinase (Homo sapiens (Human), UniProt O00329); test: PI3Kδ kinase ADP-Glo assay (Reaction Biology Corporation)
[2] = system: MCF-7; test: Cancer cell proliferation assay, single agent; format: cell-based; conditions: Homo sapiens
[3] = system: DU4475; test: Cancer cell proliferation assay, single agent; format: cell-based; conditions: Homo sapiens
[4] = biological target: FMS kinase (Homo sapiens (Human), UniProt P07333); test: LanthaScreen kinase assay (ATP, fluorescent-PolyGT substrate, TR-FRET); format: biochemical
[5] = biological target: CDK4 (Homo sapiens (Human), UniProt P11802); test: In vitro kinase inhibition, luminescence (ADP-Glo) with retinoblastoma substrate; format: biochemical
[6] = biological target: CDK6 (Homo sapiens (Human), UniProt Q00534); test: biochemical; format: biochemical
[7] = MCF7, MCF-7 cells, treated for 24-168 hours, read-out: IC50 (nM) MCF-7
[8] = DU-4475, DU4475 cells, treated for 24-168 hours, read-out: IC50 (nM) DU4475
[9] = MCF7, read-out: IC50 (nM) MCF-7
[10] = DU-4475, read-out: IC50 (nM) DU4475

Sequence of CDK4 (P11802 whole entry): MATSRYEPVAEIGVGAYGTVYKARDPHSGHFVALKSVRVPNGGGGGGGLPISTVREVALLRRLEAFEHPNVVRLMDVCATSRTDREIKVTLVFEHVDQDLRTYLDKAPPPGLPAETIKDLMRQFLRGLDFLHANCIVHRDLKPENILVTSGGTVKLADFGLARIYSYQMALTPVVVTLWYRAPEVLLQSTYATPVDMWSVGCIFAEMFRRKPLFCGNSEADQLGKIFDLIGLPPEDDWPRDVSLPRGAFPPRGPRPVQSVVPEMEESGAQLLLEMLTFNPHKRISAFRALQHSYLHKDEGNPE
Sequence of CDK4 (P24385 whole entry partner): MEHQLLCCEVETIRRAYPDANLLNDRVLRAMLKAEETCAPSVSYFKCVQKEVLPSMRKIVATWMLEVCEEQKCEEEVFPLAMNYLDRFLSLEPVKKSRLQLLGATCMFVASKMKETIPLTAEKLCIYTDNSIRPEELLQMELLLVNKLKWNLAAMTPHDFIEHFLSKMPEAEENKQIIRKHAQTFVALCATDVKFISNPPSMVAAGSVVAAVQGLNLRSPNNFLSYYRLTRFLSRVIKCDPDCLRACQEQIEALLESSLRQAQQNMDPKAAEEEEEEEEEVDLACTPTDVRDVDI
Sequence of FMS kinase (P07333 20-972): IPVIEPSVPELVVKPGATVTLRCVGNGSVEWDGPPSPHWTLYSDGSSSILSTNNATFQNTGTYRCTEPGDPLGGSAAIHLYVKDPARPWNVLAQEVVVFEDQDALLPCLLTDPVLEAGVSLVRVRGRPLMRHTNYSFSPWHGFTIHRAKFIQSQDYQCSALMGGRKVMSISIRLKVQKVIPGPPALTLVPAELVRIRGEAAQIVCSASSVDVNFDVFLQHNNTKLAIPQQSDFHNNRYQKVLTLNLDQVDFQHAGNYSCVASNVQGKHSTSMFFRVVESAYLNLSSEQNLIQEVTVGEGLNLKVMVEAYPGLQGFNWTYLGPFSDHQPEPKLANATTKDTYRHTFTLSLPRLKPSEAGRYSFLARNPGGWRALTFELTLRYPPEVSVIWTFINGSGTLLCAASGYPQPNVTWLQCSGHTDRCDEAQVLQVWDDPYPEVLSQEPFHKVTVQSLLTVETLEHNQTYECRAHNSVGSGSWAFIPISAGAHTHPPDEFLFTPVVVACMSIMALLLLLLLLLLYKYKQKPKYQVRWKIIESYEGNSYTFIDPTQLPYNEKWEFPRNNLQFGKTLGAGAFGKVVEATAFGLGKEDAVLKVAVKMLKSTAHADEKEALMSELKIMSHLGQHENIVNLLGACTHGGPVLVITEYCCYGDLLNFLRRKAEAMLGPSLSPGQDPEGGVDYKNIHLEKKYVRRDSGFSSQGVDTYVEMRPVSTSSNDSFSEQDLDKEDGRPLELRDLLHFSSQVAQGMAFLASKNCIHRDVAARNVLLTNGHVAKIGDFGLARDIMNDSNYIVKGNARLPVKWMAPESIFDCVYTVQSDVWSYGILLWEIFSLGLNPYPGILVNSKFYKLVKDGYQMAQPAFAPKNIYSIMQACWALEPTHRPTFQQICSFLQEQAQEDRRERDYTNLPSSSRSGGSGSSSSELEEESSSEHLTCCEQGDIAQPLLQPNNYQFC
Sequence of PI3Kδ kinase (O00329 whole entry): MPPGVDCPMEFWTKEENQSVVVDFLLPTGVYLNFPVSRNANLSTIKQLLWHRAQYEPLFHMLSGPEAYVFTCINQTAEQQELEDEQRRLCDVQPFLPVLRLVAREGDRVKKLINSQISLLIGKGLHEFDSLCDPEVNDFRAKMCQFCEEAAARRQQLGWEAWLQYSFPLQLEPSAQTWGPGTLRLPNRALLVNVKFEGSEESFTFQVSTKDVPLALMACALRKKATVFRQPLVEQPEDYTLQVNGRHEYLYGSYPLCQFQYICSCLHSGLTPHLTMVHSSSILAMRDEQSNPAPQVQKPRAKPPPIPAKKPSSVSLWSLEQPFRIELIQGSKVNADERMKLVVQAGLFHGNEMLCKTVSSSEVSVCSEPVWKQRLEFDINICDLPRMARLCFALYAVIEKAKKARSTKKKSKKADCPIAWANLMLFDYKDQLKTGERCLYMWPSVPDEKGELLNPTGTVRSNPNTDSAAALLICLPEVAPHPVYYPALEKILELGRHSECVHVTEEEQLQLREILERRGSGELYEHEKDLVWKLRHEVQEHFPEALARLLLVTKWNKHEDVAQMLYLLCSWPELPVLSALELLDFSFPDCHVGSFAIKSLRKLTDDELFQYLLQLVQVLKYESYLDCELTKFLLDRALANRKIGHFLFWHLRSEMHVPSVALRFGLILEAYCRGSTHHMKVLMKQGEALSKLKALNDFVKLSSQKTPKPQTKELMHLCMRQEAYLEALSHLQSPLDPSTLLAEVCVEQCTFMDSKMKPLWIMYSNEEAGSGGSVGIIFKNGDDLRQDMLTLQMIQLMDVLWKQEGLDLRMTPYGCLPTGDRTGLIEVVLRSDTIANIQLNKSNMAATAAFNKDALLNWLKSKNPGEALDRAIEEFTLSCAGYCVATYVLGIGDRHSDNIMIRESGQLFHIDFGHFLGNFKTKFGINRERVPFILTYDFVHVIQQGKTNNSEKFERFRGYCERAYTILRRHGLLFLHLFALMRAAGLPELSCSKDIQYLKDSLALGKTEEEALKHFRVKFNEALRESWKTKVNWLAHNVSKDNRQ
Sequence of PI3Kδ kinase (P27986 whole entry partner): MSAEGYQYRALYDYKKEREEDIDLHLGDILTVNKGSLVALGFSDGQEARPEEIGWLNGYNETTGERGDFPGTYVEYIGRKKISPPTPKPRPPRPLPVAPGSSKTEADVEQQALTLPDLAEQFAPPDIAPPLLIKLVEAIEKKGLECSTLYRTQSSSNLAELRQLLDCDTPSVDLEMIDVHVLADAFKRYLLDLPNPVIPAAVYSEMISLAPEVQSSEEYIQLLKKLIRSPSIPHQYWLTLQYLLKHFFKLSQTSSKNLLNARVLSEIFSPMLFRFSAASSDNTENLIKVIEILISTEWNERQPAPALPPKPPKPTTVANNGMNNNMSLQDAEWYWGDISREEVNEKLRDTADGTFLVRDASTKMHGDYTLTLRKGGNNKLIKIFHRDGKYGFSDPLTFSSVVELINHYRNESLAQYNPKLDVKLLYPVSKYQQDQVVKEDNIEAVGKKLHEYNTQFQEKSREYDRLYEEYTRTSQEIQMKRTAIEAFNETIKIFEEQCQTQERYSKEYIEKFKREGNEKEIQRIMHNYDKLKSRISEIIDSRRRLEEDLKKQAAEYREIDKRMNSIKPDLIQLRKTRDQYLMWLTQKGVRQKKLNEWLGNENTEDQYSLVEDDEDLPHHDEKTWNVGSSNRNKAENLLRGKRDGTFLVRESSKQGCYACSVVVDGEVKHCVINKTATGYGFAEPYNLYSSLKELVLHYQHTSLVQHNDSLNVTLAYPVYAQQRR

Question: With `CC(C)N1CCOc2c(F)cc(-c3nc(Nc4ccc(N5CCC(CO)CC5)cn4)ncc3F)cc21` [Compound 485, (1-(6-((5-fluoro-4-(8-fluoro-4-isopropyl-3,4-dihydro-2H-benzo[b][1,4]oxazin-6-yl)pyrimidin-2-yl)amino)pyridin-3-yl)piperidin-4-yl)methanol] as the compound, how does the pIC50 ([1]; read-out: PI3Kδ IC50) read?
Answer: < 4.30

Question: And the IC50 [2, 7]?
Answer: 470 nM

Question: And the IC50 [3, 8]?
Answer: 555 nM

Question: What about the pIC50 [4] of the same compound?
Answer: 5.49

Question: Which results are given for `CC(C)N1CCOc2c(F)cc(-c3nc(Nc4ccc(N5CCN(C)CC5=O)cn4)ncc3F)cc21` [Compound 472, 1-(6-((5-fluoro-4-(8-fluoro-4-isopropyl-3,4-dihydro-2H-benzo[b][1,4]oxazin-6-yl)pyrimidin-2-yl)amino)pyridin-3-yl)-4-methylpiperazin-2-one]?
Answer: pIC50 [5]: 8.60; pIC50 [1]: 4.54; IC50 [2, 9]: 30 nM; IC50 [3, 10]: 570 nM

Question: With `CC(C)CN1CCOc2c(F)cc(-c3nc(Nc4ccc(N5CCC(O)CC5)cn4)ncc3F)cc21` [Compound 488, 1-(6-((5-fluoro-4-(8-fluoro-4-isobutyl-3,4-dihydro-2H-benzo[b][1,4]oxazin-6-yl)pyrimidin-2-yl)amino)pyridin-3-yl)piperidin-4-ol] as the compound, how does the pIC50 [5] read?
Answer: 7.00

Question: What about the pIC50 [6] of the same compound?
Answer: 6.70

Question: What about the pIC50 ([1]; read-out: PI3Kδ IC50) of the same compound?
Answer: < 4.30

Question: What about the IC50 [2, 9] of the same compound?
Answer: 830 nM

Question: What about the IC50 [3, 10] of the same compound?
Answer: 2560 nM

Question: And the pIC50 [4]?
Answer: < 5.30

Question: Which results are given for `CC(C)CN1CCOc2c(F)cc(-c3nc(Nc4ccc(N5CCOCC5)cn4)ncc3F)cc21` [Compound 489, 5-fluoro-4-(8-fluoro-4-isobutyl-3,4-dihydro-2H-benzo[b][1,4]oxazin-6-yl)-N-(5-morpholinopyridin-2-yl)pyrimidin-2-amine]?
Answer: pIC50 [5]: 7.05; pIC50 [6]: 6.80; pIC50 ([1]; read-out: PI3Kδ IC50): < 4.30; IC50 [2, 7]: 1820 nM; IC50 [3, 10]: 4500 nM; pIC50 [4]: < 5.30

Question: `CC(C)CN1CCOc2c(F)cc(-c3nc(Nc4ccc(N5CCC(N(C)C)CC5)c(F)c4)ncc3F)cc21` [Compound 480, N-(4-(4-(dimethylamino)piperidin-1-yl)-3-fluorophenyl)-5-fluoro-4-(8-fluoro-4-isobutyl-3,4-dihydro-2H-benzo[b][1,4]oxazin-6-yl)pyrimidin-2-amine] was tested. Which pIC50 [5] did it give?
Answer: 8.26

Question: What about the pIC50 [6] of the same compound?
Answer: 7.85

Question: What about the pIC50 ([1]; read-out: PI3Kδ IC50) of the same compound?
Answer: 5.94

Question: What about the IC50 [2, 9] of the same compound?
Answer: 190 nM

Question: What about the IC50 [3, 10] of the same compound?
Answer: 435 nM

Question: What about the pIC50 [4] of the same compound?
Answer: 7.09

Question: `CN1CCC(c2ccc(Nc3ncc(F)c(-c4cc(F)c5c(c4)N(C4CCCC4)CCO5)n3)cc2F)CC1` [Compound 471, 4-(4-cyclopentyl-8-fluoro-3,4-dihydro-2H-benzo[b][1,4]oxazin-6-yl)-5-fluoro-N-(3-fluoro-4-(1-methylpiperidin-4-yl)phenyl)pyrimidin-2-amine] was tested. Which pIC50 [5] did it give?
Answer: 8.00

Question: And the pIC50 [6]?
Answer: 7.28

Question: What about the pIC50 ([1]; read-out: PI3Kδ IC50) of the same compound?
Answer: 5.70

Question: And the IC50 [2, 9]?
Answer: 45 nM

Question: What about the IC50 [3, 10] of the same compound?
Answer: 110 nM

Question: And the pIC50 [4]?
Answer: 6.34

Question: `CC(C)N1CCOc2c(F)cc(-c3nc(Nc4ccc(N5CCC(C)(O)CC5)cn4)ncc3F)cc21` [Compound 484, 1-(6-((5-fluoro-4-(8-fluoro-4-isopropyl-3,4-dihydro-2H-benzo[b][1,4]oxazin-6-yl)pyrimidin-2-yl)amino)pyridin-3-yl)-4-methylpiperidin-4-ol] was tested. Which pIC50 ([1]; read-out: PI3Kδ IC50) did it give?
Answer: < 4.30

Question: What about the IC50 [2, 7] of the same compound?
Answer: 1340 nM

Question: And the IC50 [3, 8]?
Answer: 2480 nM

Question: What about the pIC50 [4] of the same compound?
Answer: < 5.30

Question: With `OC1CCN(c2ccc(Nc3ncc(F)c(-c4cc(F)c5c(c4)N(C4CCC4)CCO5)n3)nc2)CC1` [Compound 486, 1-(6-((4-(4-cyclobutyl-8-fluoro-3,4-dihydro-2H-benzo[b][1,4]oxazin-6-yl)-5-fluoropyrimidin-2-yl)amino)pyridin-3-yl)piperidin-4-ol] as the compound, how does the pIC50 [5] read?
Answer: 7.80

Question: And the pIC50 [6]?
Answer: 7.39

Question: And the pIC50 ([1]; read-out: PI3Kδ IC50)?
Answer: < 4.30

Question: What about the IC50 [2, 9] of the same compound?
Answer: 325 nM

Question: And the IC50 [3, 10]?
Answer: 1450 nM

Question: What about the pIC50 [4] of the same compound?
Answer: < 5.30

Question: `CC(C)CN1CCOc2c(F)cc(-c3nc(Nc4ccc(C5CCN(C)CC5)c(F)c4)ncc3F)cc21` [Compound 476, 5-fluoro-N-(3-fluoro-4-(1-methylpiperidin-4-yl)phenyl)-4-(8-fluoro-4-isobutyl-3,4-dihydro-2H-benzo[b][1,4]oxazin-6-yl)pyrimidin-2-amine] was tested. Which pIC50 [5] did it give?
Answer: 8.40

Question: And the pIC50 [6]?
Answer: 7.60

Question: What about the pIC50 ([1]; read-out: PI3Kδ IC50) of the same compound?
Answer: 6.15

Question: What about the IC50 [2, 7] of the same compound?
Answer: 65 nM

Question: What about the IC50 [3, 10] of the same compound?
Answer: 135 nM

Question: And the pIC50 [4]?
Answer: 6.76
